In test [1] the target is T1, HPK1 (Homo sapiens (Human), UniProt Q92918). Kind of test: HPK1 degradation assay (western blot, human PBMC). As to conditions: for Dmax: read-out: HPK1 Dmax. The class given is cell-based. Here is the method:
Frozen human PBMC were purchased from Shanghai OribioTech and recovered with culture medium (RMPI1640) prior to use. The cells were then incubated with a variety of concentrations of compound. After incubation, the cells were collected and lysed. The protein concentration was determined by BCA protein assay kit from Thermo (23227). The HPK1 protein level was determined by western blots, using anti-human HPK1 polyclonal antibody from CST (4472S). Proteins were loaded into each well of the pre-casting gels and subjected to electrophoretic separation by SDS-PAGE. The protein resolved by SDS-PAGE were transferred to PVDF, blocked by 5% skim milk, and probed with anti-human HPK1 antibody or β-actin antibody from CST (3700S), using standard western blotting procedure.
Target sequence in this assay (Q92918 whole entry): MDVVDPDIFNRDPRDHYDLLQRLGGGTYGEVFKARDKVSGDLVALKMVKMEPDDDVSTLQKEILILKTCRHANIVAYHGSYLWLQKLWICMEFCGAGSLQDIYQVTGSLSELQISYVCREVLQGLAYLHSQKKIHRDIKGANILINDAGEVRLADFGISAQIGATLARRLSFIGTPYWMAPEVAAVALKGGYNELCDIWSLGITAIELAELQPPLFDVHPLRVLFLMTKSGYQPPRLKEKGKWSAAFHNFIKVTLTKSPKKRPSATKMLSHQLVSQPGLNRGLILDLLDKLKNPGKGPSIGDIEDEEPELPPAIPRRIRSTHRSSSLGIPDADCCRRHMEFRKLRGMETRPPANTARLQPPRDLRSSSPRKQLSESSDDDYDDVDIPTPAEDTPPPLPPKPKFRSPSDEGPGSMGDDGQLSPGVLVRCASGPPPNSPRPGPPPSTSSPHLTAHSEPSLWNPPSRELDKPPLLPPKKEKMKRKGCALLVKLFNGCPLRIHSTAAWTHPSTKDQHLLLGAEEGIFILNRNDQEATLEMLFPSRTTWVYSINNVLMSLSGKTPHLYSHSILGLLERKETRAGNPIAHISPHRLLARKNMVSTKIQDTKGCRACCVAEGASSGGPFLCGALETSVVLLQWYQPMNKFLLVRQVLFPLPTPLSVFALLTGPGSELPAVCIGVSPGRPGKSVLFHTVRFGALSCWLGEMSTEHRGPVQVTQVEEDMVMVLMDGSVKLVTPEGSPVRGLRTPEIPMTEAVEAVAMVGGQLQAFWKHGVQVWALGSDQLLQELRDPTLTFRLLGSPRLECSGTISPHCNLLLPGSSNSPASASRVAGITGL

For test [2], the system named is FLT3. Kind of test: FLT3 degradation assay (western blot, MV-411 cells). It counts as cell-based, human. As to the method:
(§1) MV-411 cells were cultured with medium (IMDM) prior to use. Cells were then incubated with a variety of concentrations of compound. After incubation, the cells were collected and lysed. The protein concentration was determined by BCA protein assay kit from Thermo (23227). The FLT3 protein level was determined by western blots, using anti-human FLT3 monoclonal antibody from CST (3462S). Proteins were loaded into each well of the pre-casting gels and subjected to electrophoretic separation by SDS-PAGE. The protein resolved by SDS-PAGE were transferred to PVDF, blocked by 5% skim milk, and probed with anti-human FLT3 antibody or -actin antibody from CST (3700S), using standard western blotting procedure.
(A western blot detects proteins with antibodies after separation by electrophoresis.)

For test [3], the system named is MEK 1/2. Kind of test: MEK 1/2 degradation assay (western blot). The class given is cell-based, human. As to conditions: protein degradation, MV-411 or IMR32 cells. As to the method:
MEK 1/2 Degradation Assay
as §1, with “(IMDM) and IMR32 cells were cultured with medium (MEM)” for “(IMDM)”, “anti-human MEK 1/2 polyclonal” for “anti-human FLT3 monoclonal”, “CST (9122S).” for “CST (3462S).”, “anti-human MEK1/2” for “anti-human FLT3”, “or β-actin” for “or -actin”, “CST (3700S) and COX IV antibody from CST (4850S),” for “CST (3700S),”

The target of test [4] is T2, Aurora A (Homo sapiens (Human), UniProt O14965). Kind of test: Aurora A degradation assay (western blot). It counts as cell-based. As to conditions: protein degradation, IMR32, Huh7 or HL-60 cells. As to the method: Aurora A Degradation Assay
T2 sequence (O14965 whole entry): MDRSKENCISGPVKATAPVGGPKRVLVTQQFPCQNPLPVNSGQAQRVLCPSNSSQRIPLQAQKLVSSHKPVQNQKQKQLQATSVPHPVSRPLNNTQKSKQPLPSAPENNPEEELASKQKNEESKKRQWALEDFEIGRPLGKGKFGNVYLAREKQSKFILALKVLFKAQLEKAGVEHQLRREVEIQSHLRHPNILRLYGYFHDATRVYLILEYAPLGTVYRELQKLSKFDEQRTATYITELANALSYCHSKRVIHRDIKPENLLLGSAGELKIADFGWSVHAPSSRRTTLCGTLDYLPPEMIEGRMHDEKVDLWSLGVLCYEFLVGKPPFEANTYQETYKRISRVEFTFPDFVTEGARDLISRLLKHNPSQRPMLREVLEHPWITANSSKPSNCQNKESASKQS
as §1, with “IMR32” for “MV-411”, “cultured with medium (MEM), Huh7 cells were cultured with medium (DMEM) and HL-60 cells were culture” for “cultured”, “AURKA” for “FLT3”, “(14475S).” for “(3462S).”, “β-actin” for “-actin”, “(3700S) or COX IV antibody from CST (4850S),” for “(3700S),”

For test [5], the target named is FLT3-ITD (Homo sapiens, UniProt P36888, ITD). Put plainly: FLT3-ITD enzyme inhibition assay. It counts as biochemical. Here is the method: FLT3-ITD Enzyme Inhibition Assay
Sequence of FLT3-ITD (P36888 whole entry, looked up, change not shown): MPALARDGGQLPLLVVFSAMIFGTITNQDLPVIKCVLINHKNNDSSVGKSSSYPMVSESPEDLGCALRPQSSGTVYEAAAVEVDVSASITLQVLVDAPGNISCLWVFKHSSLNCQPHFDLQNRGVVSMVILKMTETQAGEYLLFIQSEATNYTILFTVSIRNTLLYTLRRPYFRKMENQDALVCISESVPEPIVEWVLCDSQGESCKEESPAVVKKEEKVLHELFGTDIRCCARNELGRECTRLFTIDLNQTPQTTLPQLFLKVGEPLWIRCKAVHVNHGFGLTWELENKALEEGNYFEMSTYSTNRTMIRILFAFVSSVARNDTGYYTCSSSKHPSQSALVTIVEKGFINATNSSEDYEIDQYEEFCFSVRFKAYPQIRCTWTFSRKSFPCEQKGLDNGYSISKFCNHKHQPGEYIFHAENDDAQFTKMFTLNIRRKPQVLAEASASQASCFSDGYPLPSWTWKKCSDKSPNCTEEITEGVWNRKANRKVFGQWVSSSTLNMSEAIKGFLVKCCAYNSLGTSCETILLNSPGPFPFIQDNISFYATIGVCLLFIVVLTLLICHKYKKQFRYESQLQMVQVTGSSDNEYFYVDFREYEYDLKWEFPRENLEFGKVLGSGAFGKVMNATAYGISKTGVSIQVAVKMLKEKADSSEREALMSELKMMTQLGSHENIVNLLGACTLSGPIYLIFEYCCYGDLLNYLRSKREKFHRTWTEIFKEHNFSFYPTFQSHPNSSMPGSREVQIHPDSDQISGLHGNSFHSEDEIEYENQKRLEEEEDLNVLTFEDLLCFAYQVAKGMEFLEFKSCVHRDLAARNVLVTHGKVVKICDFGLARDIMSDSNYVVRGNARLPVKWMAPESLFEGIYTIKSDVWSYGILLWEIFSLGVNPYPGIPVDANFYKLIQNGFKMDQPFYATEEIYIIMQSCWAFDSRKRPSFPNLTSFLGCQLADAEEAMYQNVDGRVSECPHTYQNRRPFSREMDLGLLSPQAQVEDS
The compound was dissolved in 100% DMSO at the concentration of 10 mM. The FLT3-ITD protein was purchased from Invitrogen (PV6191). 10 μL per well of 2.5×FLT3-ITD protein was added to assay plate containing the test compound, centrifuged at 1000 rpm for 1 minute, and then incubated at 25° C. for 10 minutes. Peptide 2 was purchased from GL Biochem (112394) and ATP was purchased from Promega (V9102). The two were added 15 μL per well mixture of 1.67× peptide 2 (final conc. is 3 μM) and ATP (final conc. is 97.2 μM), centrifuged at 1000 rpm for 1 minute, then incubated at 25° C. for 40 minutes. Then added 30 μL of stop buffer (100 mM HEPES pH7.5, 0.015% Brij-35, 0.2% Coating Reagent 3, 50 mM EDTA) to the assay plate and centrifuged at 1000 rpm for 1 minute. the product was determined. Based on the results, the IC50 value of the compound was calculated.

Test [6] addresses T1, HPK1. Kind of test: HPK1 enzyme inhibition assay (ADP-Glo). It counts as biochemical. Here is the method: HPK1 Enzyme Inhibition Assay
The compound was dissolved in 100% DMSO at the concentration of 10 mM. The HPK1 protein was purchased from Signal Chem (M23-11G-10). 2.5 μL per well of 2×HPK1 protein was added to assay plate containing the test compound, centrifuged at 1500 rpm for 1 minute, and then incubated at 25° C. for 60 minutes. MBP protein was purchased from Signal Chem (M42-51N) and ATP was purchased from Promega (V9102). The two were added 2.5 μL per well mixture of 2×MBP (0.2 ug/ul) and ATP (20 μM), centrifuged at 1500 rpm for 1 minute, then incubated at 25° C. for 60 minutes. Then added 5 μL of ADP-Glo from Promega (V9102) to the assay plate and depleted the unconsumed ATP for 60 minutes. Then centrifuged at 1500 rpm for 1 minute and incubated at 25° C. for 60 minutes. Finally, 10 μL of the kinase assay reagent from Promega (V9102) was added to the assay plate to convert ADP to ATP, centrifuged at 1500 rpm for 1 minute, incubate at 25° C. for 40 minutes. After 40 minutes incubation, the […] was determined. Based on the results, the IC50 value of the compound was calculated.
A general note: In ADP-Glo the light output rises with the ADP produced.
Target sequence in this assay (Q92918 1-346 limits assumed): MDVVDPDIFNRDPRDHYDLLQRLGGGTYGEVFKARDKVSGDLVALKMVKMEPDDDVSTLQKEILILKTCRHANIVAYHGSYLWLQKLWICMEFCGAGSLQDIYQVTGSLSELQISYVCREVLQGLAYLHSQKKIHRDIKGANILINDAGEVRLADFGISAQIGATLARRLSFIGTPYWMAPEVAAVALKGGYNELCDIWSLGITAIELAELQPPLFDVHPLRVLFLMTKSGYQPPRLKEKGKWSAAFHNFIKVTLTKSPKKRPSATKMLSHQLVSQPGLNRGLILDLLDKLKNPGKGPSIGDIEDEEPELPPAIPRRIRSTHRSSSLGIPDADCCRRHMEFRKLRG

For test [7], the target named is T2, Aurora A. Kind of test: Aurora A enzyme inhibition assay. The class given is biochemical. As to the method: Aurora A Enzyme Inhibition Assay
The compound was dissolved in 100% DMSO at the concentration of 10 mM. The Aurora A protein was purchased from Carna (05-101). 10 μL per well of 2.5×Aurora A protein was added to assay plate containing the test compound, centrifuged at 1000 rpm for 1 minute, and then incubated at 25° C. for 10 minutes. Peptide 21 was purchased from GL Biochem (116370) and ATP was purchased from Promega (V9102). The two were added 15 μL per well mixture of 1.67× peptide 21 (final conc. is 3 μM) and ATP (final conc. is 14.58 μM), centrifuged at 1000 rpm for 1 minute, then incubated at 25° C. for 40 minutes. Then added 30 μL of stop buffer (100 mM HEPES pH7.5, 0.015% Brij-35, 0.2% Coating Reagent 3, 50 mM EDTA) to the assay plate and centrifuged at 1000 rpm for 1 minute. the product was determined. Based on the results, the IC50 value of the compound was calculated.

Setting [8] is: protein degradation, human PBMC, read-out: HPK1 DC50.
[9] abbreviates: protein degradation, human PBMC.
Where [10] appears, read: protein degradation, class symbol, read-out: FLT3 DC50 (nM)/Dmax (%).
Setting [11] is: class symbol, read-out: Aurora A DC50 (nM)/Dmax (%).
Where [12] appears, read: enzyme inhibition, read-out: FLT3-ITD IC50.
Where [13] appears, read: protein degradation, human PBMC, class symbol, read-out: HPK1 DC50 (nM)/Dmax (%).

Where two headings read alike, the source gives them in different places. Where only a bound is given, the exact number is not on record here.

What is called Dmax is the largest share of the target that was removed. A word on the IC50: it is the midpoint of a concentration-inhibition curve.

Take `CCc1c[nH]c2ncc(-c3cccc(N4CCCN(CCN5CC(c6ccc7c(c6)C(=O)N(C6CCC(=O)NC6=O)C7)C5)C4=O)c3)c(Cl)c12` (stereo not drawn) [Example 1]: the DC50 was 173 nM in test [1] (setting [8]), above 10000 nM in test [2] (setting [10]), 68 nM in test [3] (read-out: MEK 1/2 DC50) and above 10000 nM in test [4] (setting [11]). Moreover, the Dmax in test [1] (setting [9]) was 75%. For the same compound, the “MEK 1/2 Dmax” value in test [3] was 20%. In addition, in test [5] (setting [12]), the IC50 worked out at 4 nM.
As for `CCc1c[nH]c2ncc(-c3cccc(N4CCCN(CCN5CC(c6ccc7c(c6)CN(C6CCC(=O)NC6=O)C7=O)C5)C4=O)c3)c(Cl)c12` (stereo not drawn) [Example 2], the DC50 in test [1] (read-out: HPK1 DC50, protein degradation, human PBMC) was 3 nM; in test [2] (read-out: FLT3 DC50 (nM)/Dmax (%), protein degradation, class symbol), above 10000 nM; in test [3] (read-out: MEK 1/2 DC50 (nM)/Dmax (%), class symbol), above 10000 nM; in test [4] (read-out: Aurora A DC50 (nM)/Dmax (%), class symbol), above 10000 nM. Besides, the Dmax in test [1] is 80%. Also, the IC50 in test [5] was determined as 4.7 nM.
In the case of `CCc1c[nH]c2ncc(-c3cccc(N4CCCN(CCN5CCC(c6ccc7c(c6)C(=O)N(C6CCC(=O)NC6=O)C7=O)CC5)C4=O)c3)c(Cl)c12` (stereo not drawn) [Example 3, 5-(1-(2-(3-(3-(4-chloro-3-ethyl-1H-pyrrolo [2,3-b]pyridin-5-yl)phenyl)-2-oxotetrahydropyrimidin-1 (2H)-yl)ethyl)piperidin-4-yl)-2-(2,6-dioxopiperidin-3-yl) isoindoline-1,3-dione], the IC50 worked out at 5.8 nM in test [6], 50.8 nM in test [7] and 13.6 nM in test [5] (setting [12]).
In the case of `CCc1c[nH]c2ncc(-c3cccc(N4CCCN(CCN5CCN(c6ccc7c(N8CCC(=O)NC8=O)cccc7c6)CC5)C4=O)c3)c(Cl)c12` [Example 4, 1-(6-(4-(2-(3-(3-(4-chloro-3-ethyl-1H-pyrrolo [2,3-b]pyridin-5-yl)phenyl)-2-oxotetrahydropyrimidin-1 (2H)-yl)ethyl)piperazin-1-yl)naphthalen-1-yl) dihydropyrimidine-2, 4 (1H, 3H)-dione], the DC50 is above 10000 nM in test [1] (setting [13]), above 10000 nM in test [2] (setting [10]), below 1 nM in test [3] (read-out: MEK 1/2 DC50) and above 10000 nM in test [4] (setting [11]). Also, the “MEK 1/2 Dmax” value in test [3] was 30%. For the same compound, the values for the IC50 in test [6], in test [7] and in test [5] (setting [12]) were 17.1 nM, 25.2 nM and 24 nM, respectively.
For the compound `CCc1c[nH]c2ncc(-c3cccc(N4CCCN(CCN5CC=C(c6ccc7c(c6)C(=O)N(C6CCC(=O)NC6=O)C7=O)CC5)C4=O)c3)c(Cl)c12` (stereo not drawn) [Example 5, 5-(1-(2-(3-(3-(4-chloro-3-ethyl-1H-pyrrolo [2,3-b]pyridin-5-yl)phenyl)-2-oxotetrahydropyrimidin-1 (2H)-yl)ethyl)-1,2,3,6-tetrahydropyridin-4-yl)-2-(2,6-dioxopiperidin-3-yl) isoindoline-1,3-dione], the DC50 in test [1] (setting [13]) is above 10000 nM; in test [2] (setting [10]), above 10000 nM; in test [3] (read-out: MEK 1/2 DC50), 2.1 nM; in test [4] (setting [11]), above 10000 nM. In addition, in test [3], the “MEK 1/2 Dmax” value amounted to 65%. The IC50 in test [6] amounted to 13.4 nM; in test [7], 21.8 nM; in test [5] (setting [12]) it was 27.7 nM.
On to `CCc1c[nH]c2ncc(-c3cccc(N4CCCN(CC5CCN(c6ccc7c(c6)C(=O)N(C6CCC(=O)N(C)C6=O)C7=O)CC5)C4=O)c3)c(Cl)c12` (stereo not drawn) [Example 10, 5-(4-((3-(3-(4-chloro-3-ethyl-1H-pyrrolo [2,3-b]pyridin-5-yl)phenyl)-2-oxotetrahydropyrimidin-1 (2H)-yl)methyl)piperidin-1-yl)-2-(1-methyl-2,6-dioxopiperidin-3-yl) isoindoline-1,3-dione], for which the values for the IC50 in test [6], in test [7] and in test [5] (setting [12]) were 30.7 nM, 34.8 nM and 7.4 nM, respectively.
As for `O=C1CCC(N2Cc3cc(N4CCC(CN5CCCN(c6cccc(-c7cnc8[nH]cc(C9CC9)c8c7Cl)c6)C5=O)CC4)ccc3C2=O)C(=O)N1` (stereo not drawn) [Example 12, 3-[5-(4-{[3-(3-{4-chloro-3-cyclopropyl-1H-pyrrolo [2,3-b]pyridin-3-yl}phenyl)-2-oxo-1,3-diazinan-1-yl]methyl}piperidin-1-yl)-1-oxo-3H-isoindol-2-yl]piperidine-2,6-dione], the IC50 in test [6] came to 34.3 nM.
As for `O=C1CCC(N2Cc3cc(N4CCC(CN5CCCN(c6cccc(-c7cnc8[nH]cc(CC(F)F)c8c7Cl)c6)C5=O)CC4)ccc3C2=O)C(=O)N1` (stereo not drawn) [Example 14], the DC50 in test [1] (setting [8]) is 100 nM; in test [2] (protein degradation, read-out: FLT3 DC50), 11 nM; in test [3] (read-out: MEK 1/2 DC50), below 100 nM; in test [4] (read-out: Aurora A DC50), below 20 nM. Further, the Dmax in test [1] (setting [9]) came to 90%; in test [4] (read-out: Aurora A Dmax) it was 95%. Besides, in test [2] (protein degradation), the “FLT3 Dmax” value came out at 95%. The “MEK 1/2 Dmax” value in test [3] is listed as 90%. This compound also had an IC50 in test [6] of 25.8 nM.

The values above are taken from patent US20250368640A1 (BIOFRONT LTD, priority 2022, published 2025).
